Tests used:
Format in all cases: in vivo
Curled Dock [1] = experiment: Preemergence herbicidal activity, % control of plant growth; conditions: pre-emergence, 504 h, 16 lb/acre, about 3 weeks
From the text: (§1) By "preemergence" is meant that the compound is applied to the soil prior to emergence of the weed species sought to be controlled. This term, as used herein, also means the application of the herbicidal compounds falling within the scope of this disclosure to areas wherein useful or desirable plants are either growing or have been sown, but where the undesirable plants sought to be controlled have not as yet emerged.
(§2) In using the compound, seeds of the types of plants set forth in Table II were sown in fresh soil. In the preemergence test the soil was sprayed with a solution of the test compound immediately after the seeds were planted, and before any noticeable growth developed. The solution was about a 2 percent by weight solution of the compound in acetone and/or alcohol. The compound was applied at the rate of 16 pounds per acre of soil surface.
(§3) Approximately 3 weeks after spray application, the herbicidal activity of the compound was determined by visual observation of the treated area in comparison with untreated control areas. These observations are reported below in Table II wherein the average activity rating is reported as the percent control of plant growth.
(§4) *Preemergence test: compound applied at rate of 16 lb/acre

Cheatgrass [2] = experiment: as above; conditions: Bromus tectorum, pre-emergence, 504 h, 16 lb/acre, about 3 weeks
From the text: as §1, §2, §3, §4

Lambsquarters [3] = experiment: as above; conditions: Chenopodium album, pre-emergence, 504 h, 16 lb/acre, about 3 weeks
From the text: as §1, §2, §3, §4

Crabgrass [4] = experiment: as above; conditions: Digitaria sanguinalis, pre-emergence, 504 h, 16 lb/acre, about 3 weeks
From the text: as §1, §2, §3, §4

Barnyard Grass [5] = experiment: as above; conditions: Echinochloa crus-galli, pre-emergence, 504 h; barnyard grass; 16 lb/acre; about 3 weeks
From the text: as §1, §2, §3, §4

Chickweed [6] = experiment: as above; conditions: pre-emergence, 504 h, 16 lb/acre, about 3 weeks
From the text: as §1, §2, §3, §4

Alfalfa [7] = experiment: as above; conditions: Medicago sativa, pre-emergence, 504 h, 16 lb/acre, about 3 weeks
From the text: as §1, §2, §3, §4

Snapbeans [8] = experiment: as above; conditions: pre-emergence, 504 h, 16 lb/acre, about 3 weeks
From the text: as §1, §2, §3, §4

Velvetleaf [9] = experiment: as above; conditions: Abutilon theophrasti, pre-emergence, 504 h, 16 lb/acre, about 3 weeks
From the text: as §1, §2, §3, §4

Yellow Rocket [10] = experiment: as above; conditions: pre-emergence, 504 h, 16 lb/acre, about 3 weeks
From the text: as §1, §2, §3, §4

Nutgrass [11] = experiment: as above; conditions: pre-emergence, 504 h, 16 lb/acre, about 3 weeks
From the text: as §1, §2, §3, §4

Foxtail [12] = experiment: as above; conditions: Setaria, pre-emergence, 504 h, 16 lb/acre, about 3 weeks
From the text: as §1, §2, §3, §4

Johnsongrass [13] = experiment: as above; conditions: Sorghum halepense, pre-emergence, 504 h, 16 lb/acre, about 3 weeks
From the text: as §1, §2, §3, §4

Wild Oats [14] = experiment: as above; conditions: Avena fatua, pre-emergence, 504 h, 16 lb/acre, about 3 weeks
From the text: as §1, §2, §3, §4

Cucumber [15] = experiment: as above; conditions: Cucumis sativus, pre-emergence, 504 h, 16 lb/acre, about 3 weeks
From the text: as §1, §2, §3, §4

Corn [16] = experiment: as above; conditions: Zea mays, pre-emergence, 504 h, 16 lb/acre, about 3 weeks
From the text: as §1, §2, §3, §4

Pigweed [17] = experiment: as above; conditions: Amaranthus retroflexus, pre-emergence, 504 h, 16 lb/acre, about 3 weeks
From the text: as §1, §2, §3, §4

Curled Dock [18] = experiment: Postemergence herbicidal activity, % control of plant growth; conditions: post-emergence, 264 h, 8 lb/acre, about 11 days
From the text: (§5) By the term "postemergence" is meant that the compound is applied to the plant sought to be controlled after it has emerged from the soil surface. This term is also used to describe the application of herbicidally active compounds to soil surface in and around growing plants sought to be controlled for purposes of effecting root absorption by the undesirable plant species.
(§6) In the postemergence test the soil and developing plants were sprayed approximately 2 weeks after the seeds were sown. The compound was applied at the rate of 8 pounds per acre from about a 2 percent by weight solution of the test compound in acetone and/or alcohol. The postemergence herbicidal activity was measured in the same way as the preemergence activity; i.e. visual observation approximately 11 days after spraying, and expressed as the percent control of plant growth.
(§7) **Postemergence test: compound applied at rate of 8 lb/acre

Cheatgrass [19] = experiment: as above; conditions: Bromus tectorum, post-emergence, 264 h, 8 lb/acre, about 11 days
From the text: as §5, §6, §7

Lambsquarters [20] = experiment: as above; conditions: Chenopodium album, post-emergence, 264 h, 8 lb/acre, about 11 days
From the text: as §5, §6, §7

Crabgrass [21] = experiment: as above; conditions: Digitaria sanguinalis, post-emergence, 264 h, 8 lb/acre, about 11 days
From the text: as §5, §6, §7

Barnyard Grass [22] = experiment: as above; conditions: Echinochloa crus-galli, post-emergence, 264 h, 8 lb/acre, about 11 days
From the text: as §5, §6, §7

Chickweed [23] = experiment: as above; conditions: post-emergence, 264 h, 8 lb/acre, about 11 days
From the text: as §5, §6, §7

Alfalfa [24] = experiment: as above; conditions: Medicago sativa, post-emergence, 264 h, 8 lb/acre, about 11 days
From the text: as §5, §6, §7

Snapbeans [25] = experiment: as above; conditions: post-emergence, 264 h, 8 lb/acre, about 11 days
From the text: as §5, §6, §7

Velvetleaf [26] = experiment: as above; conditions: Abutilon theophrasti, post-emergence, 264 h, 8 lb/acre, about 11 days
From the text: as §5, §6, §7

Yellow Rocket [27] = experiment: as above; conditions: post-emergence, 264 h, 8 lb/acre, about 11 days
From the text: as §5, §6, §7

Nutgrass [28] = experiment: as above; conditions: post-emergence, 264 h, 8 lb/acre, about 11 days
From the text: as §5, §6, §7

Foxtail [29] = experiment: as above; conditions: Setaria, post-emergence, 264 h, 8 lb/acre, about 11 days
From the text: as §5, §6, §7

Johnsongrass [30] = experiment: as above; conditions: Sorghum halepense, post-emergence, 264 h, 8 lb/acre, about 11 days
From the text: as §5, §6, §7

Wild Oats [31] = experiment: as above; conditions: Avena fatua, post-emergence, 264 h, 8 lb/acre, about 11 days
From the text: as §5, §6, §7

Cucumber [32] = experiment: as above; conditions: Cucumis sativus, post-emergence, 264 h, 8 lb/acre, about 11 days
From the text: as §5, §6, §7

Corn [33] = experiment: as above; conditions: Zea mays, post-emergence, 264 h, 8 lb/acre, about 11 days
From the text: as §5, §6, §7

Pigweed [34] = experiment: as above; conditions: Amaranthus retroflexus, post-emergence, 264 h, 8 lb/acre, about 11 days
From the text: as §5, §6, §7

Compound | pest or weed control at 17933.6 g/ha (Curled Dock [1]) | pest or weed control at 17933.6 g/ha (Cheatgrass [2]) | pest or weed control at 17933.6 g/ha (Lambsquarters [3]) | pest or weed control at 17933.6 g/ha (Crabgrass [4]) | pest or weed control at 17933.6 g/ha (Barnyard Grass [5]) | pest or weed control at 17933.6 g/ha (Chickweed [6]) | pest or weed control at 17933.6 g/ha (Alfalfa [7]) | pest or weed control at 17933.6 g/ha (Snapbeans [8]) | pest or weed control at 17933.6 g/ha (Velvetleaf [9]) | pest or weed control at 17933.6 g/ha (Yellow Rocket [10]) | pest or weed control at 17933.6 g/ha (Nutgrass [11]) | pest or weed control at 17933.6 g/ha (Foxtail [12]) | pest or weed control at 17933.6 g/ha (Johnsongrass [13]) | pest or weed control at 17933.6 g/ha (Wild Oats [14]) | pest or weed control at 17933.6 g/ha (Cucumber [15]) | plant injury at 17933.6 g/ha (Corn [16]) | pest or weed control at 17933.6 g/ha (Pigweed [17]) | pest or weed control at 8966.8 g/ha (Curled Dock [18]) | pest or weed control at 8966.8 g/ha (Cheatgrass [19]) | pest or weed control at 8966.8 g/ha (Lambsquarters [20]) | also measured
CCCCn1c(=O)[nH]c2cccnc2c1=O [3-butyl-pyrido[3,2-d]pyrimidine-2,4(1H,3H)-dione] | 90% | 100% | 70% | 90% | 100% | 100% | 100% | 100% | 100% | 100% | 100% | 100% | 100% | 100% | 100% | 100% | 100% | 100% | 100% | 10% | pest or weed control at 8966.8 g/ha (Crabgrass [21]): 100%; pest or weed control at 8966.8 g/ha (Barnyard Grass [22]): 100%; pest or weed control at 8966.8 g/ha (Chickweed [23]): 100%; pest or weed control at 8966.8 g/ha (Alfalfa [24]): 50%; pest or weed control at 8966.8 g/ha (Snapbeans [25]): 100%; pest or weed control at 8966.8 g/ha (Velvetleaf [26]): 100%; pest or weed control at 8966.8 g/ha (Yellow Rocket [27]): 90%; pest or weed control at 8966.8 g/ha (Nutgrass [28]): 90%; pest or weed control at 8966.8 g/ha (Foxtail [29]): 100%; pest or weed control at 8966.8 g/ha (Johnsongrass [30]): 100%; pest or weed control at 8966.8 g/ha (Wild Oats [31]): 100%; pest or weed control at 8966.8 g/ha (Cucumber [32]): 100%; plant injury at 8966.8 g/ha (Corn [33]): 50%; pest or weed control at 8966.8 g/ha (Pigweed [34]): 90%
CCn1c(=O)[nH]c2cccnc2c1=O [3-ethyl-pyrido[3,2-d]pyrimidine-2,4(1H,3H)-dione] | 100% | 100% | 100% | 100% | 40% | 100% | 100% | 100% | 90% | 100% | 10% | 40% | 60% | 100% | 100% | 10% | 100% | 90% | 30% | 100% | pest or weed control at 8966.8 g/ha (Crabgrass [21]): 80%; pest or weed control at 8966.8 g/ha (Barnyard Grass [22]): 10%; pest or weed control at 8966.8 g/ha (Chickweed [23]): 100%; pest or weed control at 8966.8 g/ha (Alfalfa [24]): 50%; pest or weed control at 8966.8 g/ha (Snapbeans [25]): 80%; pest or weed control at 8966.8 g/ha (Velvetleaf [26]): 100%; pest or weed control at 8966.8 g/ha (Yellow Rocket [27]): 100%; pest or weed control at 8966.8 g/ha (Nutgrass [28]): 10%; pest or weed control at 8966.8 g/ha (Foxtail [29]): 40%; pest or weed control at 8966.8 g/ha (Johnsongrass [30]): 60%; pest or weed control at 8966.8 g/ha (Wild Oats [31]): 0%; pest or weed control at 8966.8 g/ha (Cucumber [32]): 50%; plant injury at 8966.8 g/ha (Corn [33]): 10%; pest or weed control at 8966.8 g/ha (Pigweed [34]): 90%
